Read-outs that look alike come from different tables or passages of the source.
Tests used:
[1] = Solvability in DMSO (table footnote); type: physicochemical; parameters: key to solvability in dimethyl sulfoxide (DMSO): **: poor or no solvability in dimethyl sulfoxide (DMSO); key to solvability in DMSO: [b]: poor or no solvability in DMSO
BALB/3T3 clone A31 = assay: Growth inhibition assay (SRB assay), normal fibroblasts BALB/3T3 clone A31; type: cell-based, mouse; conditions: mean ± SD
Procedure: (§1) Three human cancer cell lines were used to evaluate the antiproliferative activity of the obtained compounds: melanoma cell line Hs294T, pancreatic tumor cell line MIA PaCa-2, and lung tumor cell line NCI-H1581. The normal mouse fibroblasts cell line (BALB/3T3 clone A31) was selected as reference. All these lines were purchased from the ATCC (American Type Culture Collection, Rockville, MD, USA). NCI-H1581 cells were grown in RPMI 1640 with GlutaMax medium (Gibco, Thermo Fisher Scientific, Leicestershire, UK) with 5% fetal bovine serum (FBS; HyClone, GE Healthcare, Logan, UT, USA). Hs294T and BALB/3T3 cells were grown in Dulbecco’s Modified Eagle Medium (DMEM; Gibco, Thermo Fisher Scientific, Leicestershire, UK) supplemented with 2 mM L-glutamine and 10% FBS (HyClone, GE Healthcare, Logan, UT, USA). MIA PaCa-2 cells were grown in DMEM (Gibco, Thermo Fisher Scientific, Leicestershire, UK) supplemented with 2 mM L-glutamine, 2.5% Horse Serum (Gibco, Thermo Fisher Scientific, Leicestershire, UK), and 10% FBS (HyClone, GE Healthcare, Logan, UT, USA). All culture media were supplemented with antibiotics: 100 U/mL penicillin (Polfa Tarchomin SA, Warsaw, Poland) and 100 µg/mL streptomycin (Sigma-Aldrich Chemie GmbH, Steinheim, Germany); cells were grown at 37 °C in a humid atmosphere with 5% CO2.
(§2) Twenty-four hours prior to the addition of the tested compounds, 2000 cells per well of Balb/3T3, MIA PaCa-2, and Hs294T cell lines and 2500 cells of NCI-H1581 cell line were seeded in 384-well plates (Greiner Bio-One, Kremsmünster, Austria) in an appropriate medium. The studied compounds were added to the cells at 8 different concentrations in a series of dilutions from 100 to 0.00001 µg/mL for 72 h. Cisplatin was applied as a reference compound (Teva Pharmaceuticals, Warsaw, Poland). DMSO (Sigma-Aldrich Chemie GmbH, Steinheim, Germany) was used as solvent control. The DMSO concentrations corresponded to the solvent concentrations in the tested compound solutions. Then, 30 µL per well of ice-cold 50% TCA (trichloroacetic acid, Avantor, Gliwice, Poland) was added to the cells. After one hour of incubation at room temperature (RT) cells were washed five times with water and stained with 0.4% SRB (sulforhodamine B, Sigma-Aldrich Chemie GmbH, Steinheim, Germany). Twenty-five microliters per well of 0.4% solution of SRB in 1% acetic acid (Avantor, Gliwice, Poland) was applied. After 0.5 h of incubation at RT, the unbound dye was washed out with 1% acetic acid. The bound dye in each well was dissolved in 70 µl of 10 mM TRIS (Tris base, Sigma-Aldrich, Chemie GmbH, Steinheim, Germany). A microplate reader (BioTek Synergy H4, Swindon, UK) with Gen5 software was used to read the absorbance at 540 nm. The results are presented as mean IC50 values (concentration of the compound that inhibits cell proliferation by 50%) ± standard deviation. Half-maximal inhibitory concentration (IC50) values were calculated using the Prolab-3 system based on Cheburator 0.4 [22]. Each experiment was performed in triplicate, and three independent repetitions were made for each experiment. Raw data and IC50 values were placed in the supplementary materials.

MIA PaCa-2 = assay: Growth inhibition assay (SRB assay), pancreatic tumor cell line MIA PaCa-2; type: cell-based, human; conditions: mean ± SD
Procedure: as §1, §2

NCI-H1581 = assay: Growth inhibition assay (SRB assay), lung tumor cell line NCI-H1581; type: cell-based, human; conditions: for SI (Selectivity Index): SI = IC50 for normal cell line BALB/3T3 / IC50 for NCI-H1581
Procedure: as §1, §2

Hs294T = assay: Growth inhibition assay (SRB assay), melanoma cell line Hs294T; type: cell-based, human; conditions: 72 h, mean ± SD
Procedure: as §1, §2

[2] = Mus musculus, BALB/3T3 clone A31, 72 h, normal cell line, read-out: IC50 BALB3T3
[3] = Mus musculus, BALB/3T3 clone A31, 72 h, supplement, read-out: IC50 BALB3T3 (raw data)
[4] = Homo sapiens, MIA PaCa-2, 72 h, read-out: IC50 MIA PaCa-2
[5] = Homo sapiens, MIA PaCa-2, supplement, 72 h, read-out: IC50 MIA PaCa-2 (raw data)
[6] = Homo sapiens, NCI-H1581, 72 h, 72 h, SRB, mean ± SD, read-out: IC50 NCI-H1581
[7] = Homo sapiens, NCI-H1581, 72 h, supplement, 72 h, SRB, mean ± SD, read-out: IC50 NCI-H1581 (raw data)
[8] = Homo sapiens, Hs 294T, read-out: IC50 Hs294T
[9] = Homo sapiens, Hs 294T, supplement, read-out: IC50 Hs294T (raw data)

Structure (SMILES) | IC50 (BALB/3T3 clone A31; [2]) | IC50 (BALB/3T3 clone A31; [3]) | IC50 (MIA PaCa-2; [4]) | IC50 (MIA PaCa-2; [5]) | IC50 (NCI-H1581; [6]) | IC50 (NCI-H1581; [7]) | IC50 (Hs294T; [8]) | IC50 (Hs294T; [9]) | SI (Selectivity Index) (NCI-H1581) | other results
C[C@@H](c1ccccc1)N1C[C@@H](n2cc(-c3cccc(-c4cn([C@@H]5CN([C@@H](C)c6ccccc6)[C@H]6CC[C@@H]5C6)nn4)c3)nn2)[C@@H]2CC[C@H]1C2 [Compound 16, 1,3-Bis-(1-((1S,4S,5R)-2-((S)-1-phenylethyl)-2-azabicyclo[3.2.1]octan-4-yl)-1H-1,2,3-triazol-4-yl) benzene] | > 100 µM | > 100 µM | > 100 µM | > 100 µM | 53.9 ± 5.07 µM | 34.5 ± 3.24 µg/mL | > 100 µM | > 100 µM | – | solvability in dimethyl sulfoxide (DMSO) [1]: 16 **; solvability in DMSO ([1]; supplement): [b]; IC50 (BALB/3T3 clone A31; Mus musculus, BALB/3T3 clone A31, 72 h, supplement, read-out: IC50 BALB3T3 (non-rounded data)): > 100 µM; IC50 (MIA PaCa-2; Homo sapiens, MIA PaCa-2, supplement, 72 h, read-out: IC50 MIA PaCa-2 (non-rounded data)): > 100 µM; IC50 (Hs294T; Homo sapiens, Hs 294T, supplement, read-out: IC50 Hs294T (non-rounded data)): > 100 µM
C[C@@H](c1ccccc1)N1C[C@H](n2cc(COCc3ccccc3)nn2)[C@@H]2CC[C@H]1C2 [Compound 9, (1S,4R,5R)-4-(4-((benzyloxy)methyl)-1H-1,2,3-triazol-1-yl)-2-((S)-1-phenylethyl)-2-azabicyclo[3.2.1]octane] | 50 ± 3.25 µM | 20.1 ± 1.31 µg/mL | 76.5 ± 4.37 µM | 30.8 ± 1.76 µg/mL | 8.52 ± 1.39 µM | 3.43 ± 0.56 µg/mL | 70.9 ± 5.86 µM | 28.5 ± 2.36 µg/mL | 6 | –
C[C@@H](c1ccccc1)N1C[C@@H](n2cc(COCc3ccccc3)nn2)[C@@H]2CC[C@H]1C2 [Compound 8, (1S,4S,5R)-4-(4-((benzyloxy)methyl)-1H-1,2,3-triazol-1-yl)-2-((S)-1-phenylethyl)-2-azabicyclo[3.2.1]octane] | 61.5 ± 3.28 µM | 24.7 ± 1.32 µg/mL | 79.12 ± 0.5 µM | 31.85 ± 0.2 µg/mL | 15.48 ± 0.12 µM | 6.23 ± 0.05 µg/mL | 73.8 ± 10.1 µM | 29.7 ± 4.07 µg/mL | 4 | –
C=CC(=O)OCc1cn([C@H]2CN([C@@H](C)c3ccccc3)[C@H]3CC[C@@H]2C3)nn1 [Compound 5, (1-((1S,4R,5R)-2-((S)-1-phenylethyl)-2-azabicyclo[3.2.1]octan-4-yl)-1H-1,2,3-triazol-4-yl)methyl acrylate] | 28.5 ± 22.7 µM | 10.5 ± 8.31 µg/mL | 86.31 ± 0.35 µM | 31.63 ± 0.13 µg/mL | 18.8 ± 4.45 µM | 6.88 ± 1.63 µg/mL | 72.8 ± 9.71 µM | 26.7 ± 3.56 µg/mL | 1.5 | –
C=CC(=O)OCc1cn([C@@H]2CN([C@@H](C)c3ccccc3)[C@H]3CC[C@@H]2C3)nn1 [Compound 4, (1-((1S,4S,5R)-2-((S)-1-phenylethyl)-2-azabicyclo[3.2.1]octan-4-yl)-1H-1,2,3-triazol-4-yl)methyl acrylate] | 1.75 ± 0.76 µM | 0.64 ± 0.28 µg/mL | 87.7 ± 1.66 µM | 32.1 ± 0.61 µg/mL | 7.91 ± 1.2 µM | 2.9 ± 0.44 µg/mL | 9.52 ± 2.51 µM | 3.49 ± 0.92 µg/mL | 0.2 | –
N.N.[Cl][Pt][Cl] [Cisplatin, reference compound] | – | – | – | – | – | – | – | – | 0.3 | IC50 (BALB/3T3 clone A31; 72 h, normal cell line, read-out: IC50 BALB3T3): 1.83 ± 0.7 µM; IC50 BALB3T3 (raw data) (BALB/3T3 clone A31; supplement, 72 h): 0.55 ± 0.21 µg/mL; IC50 (MIA PaCa-2; 72 h, read-out: IC50 MIA PaCa-2): 12.6 ± 3.13 µM; IC50 MIA PaCa-2 (raw data) (MIA PaCa-2; supplement, 72 h): 3.79 ± 0.94 µg/mL; IC50 (NCI-H1581; 72 h, SRB, mean ± SD, listed as cisplatin, read-out: IC50 NCI-H1581): 7.3 µM; IC50 (NCI-H1581; 72 h, SRB, mean ± SD, read-out: IC50 NCI-H1581): 7.27 ± 2.83 µM; IC50 NCI-H1581 (raw data) (NCI-H1581; supplement, 72 h, SRB, mean ± SD): 2.18 ± 0.85 µg/mL; IC50 (Hs294T; read-out: IC50 Hs294T): 1.3 ± 0.5 µM; IC50 Hs294T (raw data) (Hs294T; supplement): 0.39 ± 0.15 µg/mL
C[C@@H](c1ccccc1)N1C[C@H](n2cc(-c3cccc(N)c3)nn2)[C@@H]2CC[C@H]1C2 [Compound 7, 3-(1-((1S,4R,5R)-2-((S)-1-phenylethyl)-2-azabicyclo[3.2.1]octan-4-yl)-1H-1,2,3-triazol-4-yl)aniline] | 52.7 ± 6.16 µM | 19.7 ± 2.3 µg/mL | 77 ± 1.98 µM | 28.7 ± 0.74 µg/mL | 7.39 ± 1.15 µM | 2.76 ± 0.43 µg/mL | 65.9 ± 8.3 µM | 24.6 ± 3.1 µg/mL | 7 | –

From PMC8072719, “Synthesis and Antiproliferative Activity of Triazoles Based on 2-Azabicycloalkanes” (Materials, 2021)
